Earlier results as cited in patent US11823773B2, “Nant cancer vaccine strategies” (Nant Holdings IP, LLC, priority 2018, dated 2023).

CC(C)(C)c1nc(-c2cccc(NS(=O)(=O)c3c(F)cccc3F)c2F)c(-c2ccnc(N)n2)s1 [Dabrafenib]
PFS compared to dacarbazine (advanced melanoma; human, in vivo): improvement in PFS

O=C(c1ccc(F)c(F)c1Nc1ccc(I)cc1F)N1CC(O)([C@@H]2CCCCN2)C1 [cobimetinib]
PFS over vemurafenib treatment alone (advanced melanoma; in combination with vemurafenib): significant increase in PFS

rituximab: anti-CD20 antibody
response rate to single agent retreatment (CD20-positive NHL; rituximab refractory (RR) patients, reasonable estimate, no trial data reported): < 5% | patients responding to retreatment (CD20-positive NHL; rituximab sensitive (RS) patients): approximately 40%
